Molecules are shown by their SMILES.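 Each compound was tested at five concentrations against cells in 96-well plates for 48 hours. At the GI50, growth is halved.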 Calls of active or inactive are those of the source. Rule as the data show it: active = GI50 up to about 1.1 µM and inactive = higher.

Common to all, as to assay: growth of human tumour cells (NCI), 48 h
Test [1] concerns EKVX.
Test [2] has as its system OVCAR-4.
The test system of test [3] is HOP-62.
The subject of test [4] is TK-10.
Test [5] relates to SN12C.
For test [6], the system named is NCI/ADR-RES.
For test [7], the system named is ACHN.
The test system of test [8] is UACC-257.
Test [9] relates to HCT-15.
For test [10], the system named is NCI-H460.
The subject of test [11] is HL-60.
The test system of test [12] is K562.
Test [13] has as its system BT-549.
The subject of test [14] is LOX IMVI.
Test [15] relates to NCI-H522.
Test [16] deals with MDA-MB-435.
Test [17] relates to HCT-116.
The test system of test [18] is SW-620.
Test [19] concerns NCI-H23.
Test [20] relates to RXF 393.

In the case of `Clc1ccc(/C=N/C23CC4CC(CC(C4)C2)C3)c(Cl)c1`, the GI50 in test [1], in test [2], in test [3], in test [4], in [5] and in test [6] was > 10 µM (inactive) each time. The GI50 was > 10 µM (inactive) in test [7]; > 10 µM (inactive) in test [8]; more than 10 µM in test [9]; > 10 µM (inactive) in test [10]; > 10 µM (inactive) in test [11]; > 10 µM (inactive) in test [12]. Also, the GI50 in test [13], in test [14], in test [15], in test [16], in test [17] and in test [18] was > 10 µM (inactive) each time. The GI50 in test [19] and in [20] was > 10 µM (inactive) throughout.
Turning to `Nc1ncnc2c1nc(Cl)n2[C@@H]1O[C@@H]2COP(=O)(O)O[C@H]2[C@H]1O` [TOCLADESINE], the GI50 in test [1] was 35.6 µM (inactive); in [2] it was 16.6 µM (inactive); in test [3], 19.5 µM (inactive); in test [4] it was 15.1 µM (inactive); in [5], 12.6 µM (inactive); in [6], 6.67 µM (inactive). Moreover, the GI50 in [7] is 5.05 µM (inactive); in test [8] it was 42.6 µM (inactive); in test [9] it was 6.7 µM; in [10], 7.03 µM (inactive); in test [11], 3.61 µM (inactive); in test [12], 2.82 µM (inactive). For the same compound, the GI50 is 5.69 µM (inactive) in test [13]; 2.7 µM (inactive) in test [14]; 27.1 µM (inactive) in test [15]; 5.41 µM (inactive) in test [16]; 3.01 µM (inactive) in [17]; 12.1 µM (inactive) in test [18]. Moreover, the GI50 is 16.5 µM (inactive) in test [19] and 7.35 µM (inactive) in [20].
As to `CC1c2cc(c3c(c2O)CN([C@@H](C)C2CCCCC2)CO3)C(C)c2cc(c3c(c2O)CN([C@@H](C)C2CCCCC2)CO3)C(C)c2cc(c3c(c2O)CN([C@@H](C)C2CCCCC2)CO3)C(C)c2cc1c1c(c2O)CN([C@@H](C)C2CCCCC2)CO1` (stereo not given in full), the GI50 in test [1] is 1.06 µM (active); in [2] it was 0.929 µM (active); in test [3], 1.97 µM (inactive); in [4], 1.73 µM (inactive); in [5], 0.962 µM (active); in test [6], 1.27 µM (inactive). Moreover, the GI50 in [7] is 1.47 µM (inactive); in test [8], 1.66 µM (inactive); in test [9], 1.51 µM; in test [10], 1.28 µM (inactive); in test [11] it was 0.152 µM (active); in [12] it was 0.369 µM (active). Also, the GI50 in test [13] was 1.77 µM (inactive); in test [14], 0.681 µM (active); in test [15], 0.607 µM (active); in test [16], 1.8 µM (inactive); in test [17] it was 1.06 µM (active); in test [18] it was 0.986 µM (active). Moreover, the figures for the GI50 in [19] and in test [20] were 1.5 µM (inactive) and 2.44 µM (inactive), respectively.
On to `CCN(CC)c1ccc(C(=C2C=CC(=[N+](CC)CC)C=C2)c2ccc(N(CC)CC)cc2)cc1`, for which the GI50 was 0.244 µM (active) in test [1]; 0.234 µM (active) in test [2]; 0.238 µM (active) in test [3]; 0.214 µM (active) in test [4]; 0.0522 µM (active) in test [5]; 0.521 µM (active) in test [6]. Further, the GI50 was 0.0446 µM (active) in test [7]; 0.132 µM (active) in test [8]; 0.194 µM in test [9]; 0.0411 µM (active) in [10]; 0.0303 µM (active) in test [11]; 0.0353 µM (active) in test [12]. Besides, the GI50 in [13] was 0.0332 µM (active); in test [14] it was 0.0541 µM (active); in [15] it was 0.113 µM (active); in [16], 0.111 µM (active); in test [17], 0.0493 µM (active); in test [18] it was 0.0711 µM (active). For the same compound, the results for the GI50 in test [19] and in test [20] were 0.0773 µM (active) and 0.18 µM (active), respectively.
As for `O=C(CCOS(=O)(=O)CF)N1CCN(C(=O)CCOS(=O)(=O)CF)CC1`, the GI50 was > 100 µM (inactive) in [1]; > 100 µM (inactive) in test [2]; 43.2 µM (inactive) in test [3]; > 100 µM (inactive) in test [4]; 35.1 µM (inactive) in [5]; > 100 µM (inactive) in test [6]. For the same compound, the GI50 in test [7] was 17.1 µM (inactive); in test [8], > 100 µM (inactive); in [9], more than 100 µM; in test [10], 5.27 µM (inactive); in test [11], 5.06 µM (inactive); in [12], 56.5 µM (inactive). In addition, the GI50 in test [13] was > 100 µM (inactive); in [14], 16.9 µM (inactive); in [15], 31.6 µM (inactive); in test [16] it was > 100 µM (inactive); in [17], 57 µM (inactive); in test [18], > 100 µM (inactive). Besides, the GI50 in test [19] was 29.6 µM (inactive); in test [20], 59.3 µM (inactive).
As for `O=[N+]([O-])c1nccn1CCCNc1ccnc2cc(Cl)ccc12`, the GI50 in test [1] is 1.93 µM (inactive); in [2], 6.41 µM (inactive); in [3] it was 25.5 µM (inactive); in test [4], 3.53 µM (inactive); in [5], 3.3 µM (inactive); in test [6] it was > 96.6 µM (inactive). In addition, the GI50 was 4.75 µM (inactive) in [7]; 3.44 µM (inactive) in [8]; 19.8 µM in [9]; 3.12 µM (inactive) in test [10]; 5 µM (inactive) in test [11]; 4.24 µM (inactive) in test [12]. Further, the GI50 in test [13] was 8.69 µM (inactive); in [14], 4.63 µM (inactive); in test [15] it was 2.25 µM (inactive); in test [16] it was 6.71 µM (inactive); in test [17] it was 3.47 µM (inactive); in [18] it was 4.23 µM (inactive). Besides, the GI50 in test [19] is 5.52 µM (inactive); in test [20], 4.26 µM (inactive).
On to `COc1ccc(CCc2ccc3c(c2)OCO3)cc1`, for which the GI50 in test [1] is 66.8 µM (inactive); in [2] it was 68.7 µM (inactive); in [3], > 100 µM (inactive); in test [4], > 100 µM (inactive); in [5], > 100 µM (inactive); in test [6], 77.4 µM (inactive). Besides, the GI50 in [7] was > 100 µM (inactive); in test [8] it was 77.1 µM (inactive); in test [9], 35.2 µM; in test [10], > 100 µM (inactive); in [11] it was 21.4 µM (inactive); in [12], 38.5 µM (inactive). For the same compound, the GI50 was 62.5 µM (inactive) in [13]; 73.6 µM (inactive) in test [14]; 51.3 µM (inactive) in test [15]; 19.6 µM (inactive) in test [16]; 36.6 µM (inactive) in [17]; 32.8 µM (inactive) in test [18]. Moreover, the values for the GI50 in [19] and in test [20] were > 100 µM (inactive) and 21.9 µM (inactive), respectively.

For the origin of these results see ChEMBL document CHEMBL1201862, “PubChem BioAssay data set” (2004).
